Test results from the NIST ThermoML archive (doi:10.1016/j.jct.2015.11.023).

Legend:
[1] = refractive index (Na D-line) (dimensionless); details: 101.33 kPa, Liquid, Standard Abbe refractometry
[2] = for surface tension liquid-gas: Maximal bubble pressure; for mass density: 101.33 kPa, Liquid, Vibrating tube method

CCCC[n+]1ccccc1.N#C[N-]C#N [1-butylpyridinium dicyanamide]
Details	mass density, [2] [kg/m3]	refractive index, [1]	surface tension liquid-gas, [2] [mN/m]
303.15 K	1065.76	1.5325	55.5
308.15 K	1062.7	1.5309	55.2
313.15 K	1059.66	1.5285	54.9
318.15 K	1056.64	1.527	54.5
323.15 K	1053.63	1.5253	54.2
328.15 K	1050.63	1.5237	53.9
333.15 K	1047.66	1.5217	53.6
338.15 K	1044.69	1.5202	53.4

CCCCC[n+]1ccccc1.N#C[N-]C#N [1-pentylpyridinium dicyanamide]
Details	mass density, [2] [kg/m3]	refractive index, [1]	surface tension liquid-gas, [2] [mN/m]
303.15 K	1050.05	1.5287	53
308.15 K	1047.03	1.5272	52.7
313.15 K	1044.03	1.5258	52.4
318.15 K	1041.04	1.5243	52.1
323.15 K	1038.07	1.523	51.7
328.15 K	1035.11	1.5212	51.4
333.15 K	1032.17	1.5194	51.2
338.15 K	1029.24	1.5179	51

CCC[n+]1ccccc1.N#C[N-]C#N [1-propylpyridinium dicyanamide]
Details	mass density, [2] [kg/m3]	refractive index, [1]	surface tension liquid-gas, [2] [mN/m]
303.15 K	1086.92	1.539	57.7
308.15 K	1083.79	1.5374	57.4
313.15 K	1080.69	1.5356	57
318.15 K	1077.6	1.5342	56.7
323.15 K	1074.52	1.5329	56.4
328.15 K	1071.46	1.5312	56.1
333.15 K	1068.42	1.5293	55.7
338.15 K	1065.4	1.5276	55.4
